{"source": "PubChem BioAssay (NCI)", "test_in_all_cases": "growth of human tumour cells (NCI), 384-well format", "key": {"[1]": {"system": "SK-MEL-2 melanoma"}, "[2]": {"system": "UO-31 renal"}, "[3]": {"system": "NCI/ADR-RES ovarian"}, "[4]": {"system": "TK-10 renal"}, "[5]": {"system": "HOP-92 NSCLC"}, "[6]": {"system": "HCT-15 colon"}, "[7]": {"system": "NCI-H226 lung"}, "[8]": {"system": "OVCAR-4 ovarian"}, "[9]": {"system": "NCI-H522 lung"}, "[10]": {"system": "MOLT-4 leukemia"}, "[11]": {"system": "RPMI-8226 leukemia"}, "[12]": {"system": "MDA-MB-435 melanoma"}, "[13]": {"system": "MCF7 breast"}, "[14]": {"system": "HL-60(TB) leukemia"}, "[15]": {"system": "COLO 205 colon"}, "[16]": {"system": "SN12C renal"}, "[17]": {"system": "HOP-62 NSCLC"}, "[18]": {"system": "PC-3 prostate"}, "[19]": {"system": "A549 NSCLC"}, "[20]": {"system": "RXF 393 renal"}, "[21]": {"system": "UACC-62 melanoma"}, "[22]": {"system": "OVCAR-8 ovarian"}, "[23]": {"system": "M14 melanoma"}, "[24]": {"system": "HCT-116 colon"}, "[25]": {"system": "SK-MEL-5 melanoma"}, "[26]": {"system": "786-0 renal"}, "[27]": {"system": "MDA-MB-468 breast"}, "[28]": {"system": "ACHN renal"}, "[29]": {"system": "K-562 leukemia"}, "[30]": {"system": "CCRF-CEM leukemia"}, "[31]": {"system": "A498 renal"}, "[32]": {"system": "SR leukemia"}}, "note": "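Here, GI50 denotes the concentration required for 50% inhibition of growth. TGI is the concentration that stops growth completely.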"}
{"molecule": "Cc1sc(C(=O)c2cncnc2N[C@@H]2C[C@H](COS(N)(=O)=O)[C@@H](O)C2)cc1[C@@H]1NCCc2ccc(Cl)cc21", "values": [{"measurement": "GI50", "setting": "[1]", "result": "< 10", "unit": "nM"}, {"measurement": "TGI", "setting": "[1]", "result": 12.3, "unit": "nM"}, {"measurement": "GI50", "setting": "[2]", "result": 10.6, "unit": "µM"}, {"measurement": "TGI", "setting": "[2]", "result": 22.6, "unit": "µM"}, {"measurement": "GI50", "setting": "[3]", "result": 32.7, "unit": "µM"}, {"measurement": "TGI", "setting": "[3]", "result": "> 100", "unit": "µM"}, {"measurement": "GI50", "setting": "[4]", "result": 14.5, "unit": "µM"}, {"measurement": "TGI", "setting": "[4]", "result": 27.7, "unit": "µM"}, {"measurement": "GI50", "setting": "[5]", "result": 18.8, "unit": "nM"}, {"measurement": "TGI", "setting": "[5]", "result": 10.1, "unit": "µM"}, {"measurement": "GI50", "setting": "[6]", "result": 2500, "unit": "nM"}, {"measurement": "TGI", "setting": "[6]", "result": 14.2, "unit": "µM"}, {"measurement": "GI50", "setting": "[7]", "result": 160, "unit": "nM"}, {"measurement": "TGI", "setting": "[7]", "result": 16.3, "unit": "µM"}, {"measurement": "GI50", "setting": "[8]", "result": 29, "unit": "nM"}, {"measurement": "TGI", "setting": "[8]", "result": 81, "unit": "nM"}, {"measurement": "GI50", "setting": "[9]", "result": "< 10", "unit": "nM"}, {"measurement": "TGI", "setting": "[9]", "result": 15.1, "unit": "nM"}, {"measurement": "GI50", "setting": "[10]", "result": "< 10", "unit": "nM"}, {"measurement": "TGI", "setting": "[10]", "result": 18.6, "unit": "nM"}, {"measurement": "GI50", "setting": "[11]", "result": "< 10", "unit": "nM"}, {"measurement": "GI50", "setting": "[12]", "result": "< 10", "unit": "nM"}, {"measurement": "TGI", "setting": "[12]", "result": 18.3, "unit": "nM"}, {"measurement": "GI50", "setting": "[13]", "result": "< 10", "unit": "nM"}, {"measurement": "TGI", "setting": "[13]", "result": 15.3, "unit": "µM"}, {"measurement": "GI50", "setting": "[14]", "result": 11.1, "unit": "nM"}, {"measurement": "TGI", "setting": "[14]", "result": 23.3, "unit": "nM"}, {"measurement": "GI50", "setting": "[15]", "result": 13.2, "unit": "nM"}, {"measurement": "TGI", "setting": "[15]", "result": 75.6, "unit": "nM"}, {"measurement": "GI50", "setting": "[16]", "result": 133, "unit": "nM"}, {"measurement": "TGI", "setting": "[16]", "result": 21.4, "unit": "µM"}, {"measurement": "GI50", "setting": "[17]", "result": 321, "unit": "nM"}, {"measurement": "TGI", "setting": "[17]", "result": 19.3, "unit": "µM"}, {"measurement": "GI50", "setting": "[18]", "result": 35.2, "unit": "nM"}, {"measurement": "TGI", "setting": "[18]", "result": 19.2, "unit": "µM"}, {"measurement": "GI50", "setting": "[19]", "result": 74.4, "unit": "nM"}, {"measurement": "TGI", "setting": "[19]", "result": 17.2, "unit": "µM"}, {"measurement": "GI50", "setting": "[20]", "result": 10.4, "unit": "nM"}, {"measurement": "TGI", "setting": "[20]", "result": 57.8, "unit": "nM"}, {"measurement": "GI50", "setting": "[21]", "result": 19.8, "unit": "nM"}, {"measurement": "TGI", "setting": "[21]", "result": 17.7, "unit": "µM"}, {"measurement": "GI50", "setting": "[22]", "result": 186, "unit": "nM"}, {"measurement": "TGI", "setting": "[22]", "result": 17.5, "unit": "µM"}, {"measurement": "GI50", "setting": "[23]", "result": 32.2, "unit": "nM"}, {"measurement": "TGI", "setting": "[23]", "result": 214, "unit": "nM"}, {"measurement": "GI50", "setting": "[24]", "result": 28.2, "unit": "nM"}, {"measurement": "TGI", "setting": "[24]", "result": 17.4, "unit": "µM"}, {"measurement": "GI50", "setting": "[25]", "result": 56.5, "unit": "nM"}, {"measurement": "TGI", "setting": "[25]", "result": 239, "unit": "nM"}, {"measurement": "GI50", "setting": "[26]", "result": 453, "unit": "nM"}, {"measurement": "TGI", "setting": "[26]", "result": 20.5, "unit": "µM"}, {"measurement": "GI50", "setting": "[27]", "result": "< 10", "unit": "nM"}, {"measurement": "TGI", "setting": "[27]", "result": 17.2, "unit": "nM"}, {"measurement": "GI50", "setting": "[28]", "result": 12.5, "unit": "µM"}, {"measurement": "TGI", "setting": "[28]", "result": 25.3, "unit": "µM"}, {"measurement": "GI50", "setting": "[29]", "result": 54.8, "unit": "nM"}, {"measurement": "TGI", "setting": "[29]", "result": 13.1, "unit": "µM"}, {"measurement": "GI50", "setting": "[30]", "result": "< 10", "unit": "nM"}, {"measurement": "TGI", "setting": "[30]", "result": 14.8, "unit": "nM"}, {"measurement": "GI50", "setting": "[31]", "result": 561, "unit": "nM"}, {"measurement": "TGI", "setting": "[31]", "result": 18.7, "unit": "µM"}, {"measurement": "GI50", "setting": "[32]", "result": "< 10", "unit": "nM"}]}
